Legend:
C57BL/6 mice [1] = assay: Intermittent access to 20% Alcohol in two-bottle choice (IA2BC) model: alcohol consumption; format: in vivo
Experimental: The principle of the study is based on Intermittent access to 20% Alcohol in two-bottle choice (IA2BC) model in mice. The mice were provided during the whole Study with two bottles: one bottle of water, and another bottle of 20% ethanol solution, which were removed and replaced after 24 hours with another buttle of water, for additional 24 hours. In total, the mice were subjected to 20% ethanol 24 hours, three times a week, for seven-eight weeks (21-22 alcohol consumption days).
The alcohol consumption was measured after each 24 of alcohol exposure (by weighing the alcohol buttle before and after). Following four weeks of intermittent access to 20% alcohol the mice were allocated to groups according to their alcohol consumption, to achieve balanced groups. To examine the effect of treatment in reducing alcohol consumption, mice were treated with the Test Item/s or Vehicle daily during weeks 6-7/8. […]
Animal alcohol and water consumption was recorded for each cage and was done for a 24±2 hours period starting at Day 1, three times a week thereafter until the end of the Study.
Intermittent access to 20% Alcohol in two-bottle choice (IA2BC) model in mice. The mice were subjected to 20% ethanol 24 hours, three times a week, for five weeks (15 alcohol consumption days), and the alcohol consumption was measured by weight. […]

C57BL/6 mice [2] = assay: Alcohol preference (alcohol / total fluids) in the IA2BC study; format: in vivo
Experimental: The mean alcohol preference, which was defined as the ratio between alcohol weight (g/kg/24 h) divided by the total weight of water and alcohol consumed by the animals (g/kg/24 h) was evaluated.

[3] = Body weight in the IA2BC study; format: in vivo, mice; settings: group 4F (MEAI mid dose, 60 mg/kg), only during Day 40 of cycle 1; *p<0.05
Experimental: Body weight was recorded upon arrival, before study initiation, three times a week thereafter and at termination.
Body weight (BW) was monitored every other day in all animals of all groups.

C57BL/6 mice [4] = assay: Mortality and gross pathology in the IA2BC study; format: in vivo
Experimental: Morbidity and mortality checks were performed daily. Animals that were sacrificed during the study were considered for the interpretation of study results as animals that died during the study. In case of mortality before the study's scheduled termination, gross pathology evaluation was performed as close as possible to the time of death. The time of death was recorded as precisely as possible.
Observations documented any irregularities, such as changes in local injection site, skin, fur, eyes, mucous membranes, respiratory, occurrence of secretions and excretions (e.g. diarrhea) and autonomic activity (e.g. lacrimation, salivation, piloerection, pupil size, unusual respiratory pattern). Changes in gait, posture, and response to handling, as the presence of bizarre behavior, tremors, convulsions, sleep, and coma were also included. All observed abnormalities, toxic signs, moribund condition, and pre-terminal deaths were recorded.
The animals were evaluated for macroscopic findings during gross pathology.

C57BL/6 mice [5] = assay: Food consumption in the IA2BC study; format: in vivo; settings: cycle 2, Group 7F, MEAI/PEA 0/25 mg/kg
Experimental: Animal food consumption was performed twice before first dosing (during alcohol addition, and without alcohol addition), during dosing period at each alcohol addition (six times in total) and before termination (without alcohol addition).
The Food consumption was recorded in each cage for a […] period. Determinations of food consumption (calculated value) were based on a provided diet placed in hoppers and the remaining unused diet weighed.
Food consumption was monitored per each mouse in each individual cage for 24 h during Alcohol addition time, by measuring the weight of food before and after 24 hours. The consumption of food was measured during all MEAI treatment days, in both cycles. The mean value for each group during each consumption day was calculated as fold change from baseline (i.e. food consumption measured before MEAI treatment), per each animal. The fold change values of each MEAI/PEA treated group was compared to the vehicle groups (1F/6F/7F) and statistical analysis was performed.

COc1ccc2c(c1)CC(N)C2 (centres unmarked) [MEAI, 5-methoxy-2-aminoindan]
reducing alcohol consumption of the treated animals (C57BL/6 mice [1]; MEAI 20-100 mg/kg PO daily, weeks 6-7/8, treated vs control): significant dose dependent effect | alcohol consumption during treatment compared to consumption before treatment (C57BL/6 mice [1]; cycle 1, MEAI at a dose of 40 mg/kg and at higher doses PO, mean of six alcohol days, ** p<0.01, *** p<0.001): significantly reduced | reduction of alcohol preference compared to control, significance (C57BL/6 mice [2]; cycle 1, 100 mg/kg MEAI): statistically significant | mean alcohol preference compared to control groups (C57BL/6 mice [2]; cycle 1, MEAI 20-100 mg/kg): reduced in a dose dependent manner | body weight compared to control group [3]: significantly lower | mortality (C57BL/6 mice [4]; high doses treated groups, after prolonged alcohol consumption): four | gross pathology findings in liver, kidneys, heart and spleen (bright color and/or enlarged) (C57BL/6 mice [4]; observed in all groups including vehicle treated): most likely related to the alcohol consumption and not to the MEAI treatment

CCCCCCCCCCCCCCCC(=O)NCCO [PEA, N-(2-hydroxyethyl) hexadecanamide]
reduction of food consumption compared to own baseline (C57BL/6 mice [5]): 22%
